Where a name gives a salt, the structure may show the parent alone.

Holding throughout (type): cell-based
The target in assay [1] is T1, human norepinephrine transporter (Homo sapiens, UniProt P23975).
T1 construct: expressed in transfected cells
Put plainly: Inhibitory action on human norepinephrine transporter ([3H]-norepinephrine uptake in CHO cells). The conditions noted are these: CHO, compound 1 μM; relative to inhibitory activity of 10 μM DMI as 100%; read-out: inhibitory rate (%). The text has this: (§1) Human serotonin transporter cDNA was amplified from human brain cDNA library by PCR, and inserted into pCRII-TOPO vector (manufactured by Invitrogen). The base sequence was confirmed and modified, and subcloned to pcDNA3.1 vector (manufactured by Invitrogen), whereby a human serotonin transporter expression plasmid was constructed. Human norepinephrine transporter cDNA was purchased from Invitrogen, and the base sequence was confirm and modified, and subcloned to pcDNA3.1 vector, whereby a human norepinephrine transporter expression plasmid was constructed.
(§2) The monoamine transporter expression plasmids thus prepared were introduced into CHO-K1 cells using FuGENE6 (manufactured by Roche Diagnostics) and according to the attached protocol, whereby each expressing cell was established.
CHO cells stably expressing human norepinephrine transporter were used for the measurement of human norepinephrine transporter inhibitory activity. Unless otherwise indicated, these CHO cells were cultured in Ham/F12 medium (Invitrogen) containing 10% fetal bovine serum (MOREGATE).
The cultured cells that reached almost confluent were rinsed with PBS (Invitrogen), detached with Trypsin/EDTA (Invitrogen), and collected by a centrifugal operation. The obtained cells were counted, and diluted to 3×10^5 cells per 1 mL medium, and the mixture was dispensed to a 96 well white plate (Corning) at 100 μL per well, and cultured overnight in a CO2 incubator.
(§3) Then, an assay buffer (126 mM NaCl, 4.95 mM KCl, 1.26 mM KH2PO4, 1.26 mM MgSO4, 10 mM HEPES, 2.32 mM CaCl2, 5.52 mM Glucose, 0.5% BSA) was prepared, the medium in the cell plate was removed and the assay buffer was added by 80 μL. A test compound was diluted with the assay buffer to a 10-fold concentration of the final concentration, and the mixture was dispensed to a 96 well polypropylene plate. The diluted test compound was dispensed to the cell plate by 10 μL. [3H]-Norepinephrine (GE Healthcare) was diluted with the assay buffer to 200 nM, and the mixture was dispensed to the cell plate by 10 μL. At 45 min from [3H]-norepinephrine addition, the assay buffer was removed by suction, and the plate was washed twice with 150 μL of PBS (Invitrogen) per well. Microscinti20 (PerkinElmer) was dispensed to each well by 100 μL, and the mixture was stirred for about 30 min. The radioactivity was measured by TopCount (PerkinElmer).
The inhibitory activity of each compound (10 μM) was calculated as a relative activity value based on the inhibitory activity of 10 μM DMI (norepinephrine transporter inhibitor) as 100%.
The inhibitory activity of each compound (1 μM) was calculated as a relative activity value based on the inhibitory activity of 10 μM DMI (norepinephrine transporter inhibitor) as 100%.

Assay [2] addresses T2, human dopamine transporter (Homo sapiens, UniProt Q01959).
T2 construct: expressed in transfected cells
The experiment in a line: Inhibitory action on human dopamine transporter ([3H]-dopamine uptake in CHO cells). The conditions noted are these: CHO, compound 1 μM; relative to inhibitory activity of 100 μM Nomifensine as 100%; read-out: inhibitory rate (%).
Description: SRα promoter contained in pTB1411 described in JP-A-H5-076385 was cleaved with restriction enzyme […](manufactured by TAKARA BIO INC.), blunt-ended, further cleaved with restriction enzyme EcoRI (manufactured by TAKARA BIO INC.), and fragmented. On the other hand, pCI vector was cleaved with restriction enzyme BglII (manufactured by TAKARA BIO INC.), blunt-ended with T4 DNA polymerase, and further cleaved with restriction enzyme EcoRI (manufactured by TAKARA BIO INC.). Into this site was inserted an SRa promoter fragment to give pCI-SRa. Then, pCI-SRa was cleaved with restriction enzyme ClaI (manufactured by TAKARA BIO INC.) and blunt-ended. Into this site was inserted a 1.63 Kb fragment obtained by cleaving pGFP-C1 (manufactured by TOYOBO) with restriction enzyme Bsu36I (manufactured by Daiichi Pure Chemicals Co., Ltd.) followed by blunt-ending, whereby pMSRα neo was prepared. Human dopamine transporter cDNA was amplified from human substantia nigra cDNA library by PCR, and inserted into the pCRII vector (manufactured by Invitrogen). The base sequence was confirmed, modified and subcloned to pMSRα neo, whereby a human dopamine transporter expression plasmid was constructed.
as §2
CHO cells stably expressing human dopamine transporter were used for the measurement of human dopamine transporter inhibitory activity. Unless otherwise indicated, these CHO cells were cultured in Ham/F12 medium (Invitrogen) containing 10% fetal bovine serum (MOREGATE).
One day before the assay, the cultured cells that reached almost confluent were rinsed with PBS (Invitrogen), detached with Trypsin/EDTA (Invitrogen), and collected by a centrifugal operation. The obtained cells were counted, and diluted to 3×10^5 cells per 1 mL medium, and the mixture was dispensed to a 96 well white plate (Corning) at 100 μL per well, and cultured overnight in a CO2 incubator.
as §3, with “On the day of the test,” for “Then,”, “[3H]-Dopamine” for “[3H]-Norepinephrine”, “nM, cold dopamine was diluted to 10 μM,” for “nM,”, “60” for “45”, “[3H]-dopamine” for “[3H]-norepinephrine”
The inhibitory activity of each compound (10 μM) was calculated as a relative activity value based on the inhibitory activity of 100 μM Nomifensine (dopamine transporter inhibitor) as 100%.
The inhibitory activity of each compound (1 μM) was m calculated as a relative activity value based on the inhibitory activity of 100 μM Nomifensine (dopamine transporter inhibitor) as 100%.

Assay [3] deals with T3, human serotonin transporter (Homo sapiens, UniProt P31645).
T3 construct: expressed in transfected cells
T3 sequence (P31645 whole entry): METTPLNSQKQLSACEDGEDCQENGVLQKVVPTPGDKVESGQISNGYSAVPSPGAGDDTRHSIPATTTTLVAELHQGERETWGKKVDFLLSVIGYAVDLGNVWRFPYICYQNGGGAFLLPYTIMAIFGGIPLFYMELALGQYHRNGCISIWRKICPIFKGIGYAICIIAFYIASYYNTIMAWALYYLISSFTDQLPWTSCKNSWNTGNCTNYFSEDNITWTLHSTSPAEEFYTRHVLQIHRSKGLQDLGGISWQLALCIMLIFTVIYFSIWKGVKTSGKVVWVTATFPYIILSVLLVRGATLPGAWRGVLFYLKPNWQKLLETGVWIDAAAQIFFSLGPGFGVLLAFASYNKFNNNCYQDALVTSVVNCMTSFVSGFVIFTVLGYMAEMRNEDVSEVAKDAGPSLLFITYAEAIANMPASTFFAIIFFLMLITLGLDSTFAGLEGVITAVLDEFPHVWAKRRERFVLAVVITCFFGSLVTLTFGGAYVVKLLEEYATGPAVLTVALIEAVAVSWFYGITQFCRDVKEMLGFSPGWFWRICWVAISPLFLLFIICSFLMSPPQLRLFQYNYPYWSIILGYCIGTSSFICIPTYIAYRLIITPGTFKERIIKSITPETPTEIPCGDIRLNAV
Put plainly: Inhibitory action on human serotonin transporter ([3H]-5-hydroxytryptamine uptake in CHO cells). To be noted: CHO, compound 1 μM; relative to inhibitory activity of 10 μM Paroxetine as 100%; read-out: inhibitory rate (%).
Description: as §1, §2
CHO cells stably expressing a human serotonin transporter were used for the measurement of human serotonin transporter inhibitory activity. Unless particularly indicated, these CHO cells were cultured in a Ham/F12 medium (Invitrogen) containing 10% fetal bovine serum (MOREGATE).
The cultured cells that reached almost confluent were rinsed with PBS (Invitrogen), detached with Trypsin/EDTA (Invitrogen), and collected by a centrifugal operation. The obtained cells were counted, and diluted to 3×10^5 cells per 1 mL medium, the mixture was dispensed to a 96 well white plate (Corning) at 100 μL per well, and cultured overnight in a CO2 incubator.
as §3, with “[3H]-5-Hydroxytryptamine” for “[3H]-Norepinephrine”, “20” for “45”, “[3H]-5-hydroxytryptamine” for “[3H]-norepinephrine”
The inhibitory activity of each compound (10 μM) was calculated as a relative activity value based on the inhibitory activity of 10 μM Paroxetine (serotonin transporter inhibitor) as 100%.
In addition, the inhibitory activity of each compound (1 μM) was calculated as a relative activity value based on the inhibitory activity of 10 μM Paroxetine (serotonin transporter inhibitor) as 100%.

T1 sequence (P23975 whole entry): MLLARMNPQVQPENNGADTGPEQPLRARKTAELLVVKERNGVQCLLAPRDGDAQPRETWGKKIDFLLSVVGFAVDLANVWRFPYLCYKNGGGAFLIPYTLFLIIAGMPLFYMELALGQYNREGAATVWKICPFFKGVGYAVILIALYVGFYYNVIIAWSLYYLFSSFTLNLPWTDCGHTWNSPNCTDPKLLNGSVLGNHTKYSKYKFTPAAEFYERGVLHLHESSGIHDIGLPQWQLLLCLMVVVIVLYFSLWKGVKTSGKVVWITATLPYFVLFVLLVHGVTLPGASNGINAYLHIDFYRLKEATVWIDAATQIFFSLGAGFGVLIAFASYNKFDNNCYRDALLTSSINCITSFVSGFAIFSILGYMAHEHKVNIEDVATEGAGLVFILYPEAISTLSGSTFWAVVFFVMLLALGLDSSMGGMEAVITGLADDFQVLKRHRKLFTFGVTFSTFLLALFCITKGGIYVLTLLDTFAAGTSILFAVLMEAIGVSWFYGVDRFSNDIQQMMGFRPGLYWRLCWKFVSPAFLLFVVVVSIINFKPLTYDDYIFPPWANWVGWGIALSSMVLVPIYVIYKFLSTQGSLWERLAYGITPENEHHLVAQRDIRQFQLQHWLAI
T2 sequence (Q01959 whole entry): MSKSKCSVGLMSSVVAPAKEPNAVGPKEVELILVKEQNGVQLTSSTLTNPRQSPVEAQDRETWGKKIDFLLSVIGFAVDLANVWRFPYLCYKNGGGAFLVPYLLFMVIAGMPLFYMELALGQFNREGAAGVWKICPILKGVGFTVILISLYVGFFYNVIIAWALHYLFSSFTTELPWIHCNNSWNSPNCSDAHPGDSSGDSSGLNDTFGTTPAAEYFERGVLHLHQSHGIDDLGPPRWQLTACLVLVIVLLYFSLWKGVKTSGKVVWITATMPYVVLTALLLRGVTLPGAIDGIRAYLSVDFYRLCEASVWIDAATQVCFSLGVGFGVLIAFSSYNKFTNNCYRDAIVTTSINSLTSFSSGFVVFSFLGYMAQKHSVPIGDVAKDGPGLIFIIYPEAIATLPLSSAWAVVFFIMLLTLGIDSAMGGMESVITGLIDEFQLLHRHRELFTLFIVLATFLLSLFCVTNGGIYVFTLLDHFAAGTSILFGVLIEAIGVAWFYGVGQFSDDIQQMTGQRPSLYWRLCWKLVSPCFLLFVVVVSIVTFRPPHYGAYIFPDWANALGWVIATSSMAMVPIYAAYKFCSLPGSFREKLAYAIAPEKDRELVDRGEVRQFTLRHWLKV

In the case of `OCCOC[C@H]1OCCNC[C@@H]1c1ccc(Cl)c(Cl)c1` (racemic) [Example 495, 2-{[(6RS,7RS)-6-(3,4-dichlorophenyl)-1,4-oxazepan-7-yl]methoxy}ethanol monohydrochloride], the inhibition at 1 µM in assay [1] turned out to be 105%; in assay [2] it was 42%; in assay [3] it was 59%.
On the same counts, the results for `CS(=O)(=O)NCCC[C@@H]1OCCNC[C@H]1c1ccc(Cl)c(Cl)c1` (racemic) [Example 520, N-{3-[(6RS,7SR)-6-(3,4-dichlorophenyl)-1,4-oxazepan-7-yl]propyl}methanesulfonamide monohydrochloride] are 105%, 36% and 84%.
On the same counts, the results for `O=S(=O)(NC[C@@]1(O)CNCCO[C@@H]1c1ccc(Cl)c(Cl)c1)C(F)F` (racemic) [Example 521, N-{[(6RS,7SR)-7-(3,4-dichlorophenyl)-6-hydroxy-1,4-oxazepan-6-yl]methyl}-1,1-difluoromethanesulfonamide monohydrochloride] are 104%, 76% and 84%.
Turning to `CO[C@]1(CNS(C)(=O)=O)CNCCO[C@@H]1c1ccc(Cl)c(Cl)c1` (racemic) [Example 523, N-{[(6RS,7SR)-7-(3,4-dichlorophenyl)-6-methoxy-1,4-oxazepan-6-yl]methyl}methanesulfonamide monohydrochloride], the figures for the inhibition at 1 µM in assay [1], in assay [2] and in assay [3] were 91%, 2% and 64%, respectively.
On the same counts, the results for `CS(=O)(=O)C[C@@]1(O)CNCCO[C@@H]1c1ccc(Cl)c(F)c1` (racemic) [Example 538, (6RS,7RS)-7-(4-chloro-3-fluorophenyl)-6-[(methylsulfonyl)methyl]-1,4-oxazepan-6-ol monohydrochloride] are 102%, 38% and 91%.
The corresponding values for `O=C(O)c1cccn(C[C@@H]2CNCCO[C@H]2c2ccc(Cl)c(F)c2)c1=O` (racemic) [Example 588, 1-{[(6RS, 7SR)-7-(4-chloro-3-fluoro-phenyl)-1,4-oxazepan-6-yl]methyl}-2-oxo-1,2-dihydro-pyridine-3-carboxylic acid] are 104%, 12% and 43%.
On the same counts, the results for `Cc1ccc([C@H]2OCCNC[C@@H]2CNS(C)(=O)=O)cc1Cl` (relative stereo) [Example 409, N-{[(6R,7S)-7-(3-chloro-4-methylphenyl)-1,4-oxazepan-6-yl]methyl}methanesulfonamide monohydrochloride] are 105%, 24% and 56%.
With `CO[C@@]1(CNC(C)=O)CNCCO[C@H]1c1ccc(Cl)c(F)c1` (relative stereo) [Example 561, N-{[(6R*,7S*)-7-(4-chloro-3-fluorophenyl)-6-methoxy-1,4-oxazepan-6-yl]methyl}acetamide monohydrochloride (retention time long)], the results for the inhibition at 1 µM in assay [1], in assay [2] and in assay [3] were 98%, 1% and 46%, respectively.
The corresponding values for `CC(=O)N(C)C[C@]1(O)CNCCO[C@H]1c1ccc(Cl)c(F)c1` (relative stereo) [Example 563, N-{[(6R*,7S*)-7-(4-chloro-3-fluorophenyl)-6-hydroxy-1,4-oxazepan-6-yl]methyl}-N-methylacetamide monohydrochloride (retention time short)] are 103%, 2% and 87%.
On the same counts, the results for `CS(=O)(=O)NC[C@@H]1CNCCO[C@H]1c1ccc(Cl)c(Cl)c1` [Example 34, N-{[(6S,7R)-7-(3,4-dichlorophenyl)-1,4-oxazepan-6-yl]methyl}methanesulfonamide monohydrochloride] are 96%, 75% and 84%.
The corresponding values for `NS(=O)(=O)NC[C@@H]1CNCCO[C@H]1c1ccc(Cl)c(Cl)c1` [Example 35, N-{[(6S,7R)-7-(3,4-dichlorophenyl)-1,4-oxazepan-6-yl]methyl}sulfamide monohydrochloride] are 99%, 63% and 86%.
